# Experiments:
# Type in all cases: cell-based
# [1] = system: SK-Mel-5 cell line; assay: CellTiter-Glow cell viability, melanoma SK-Mel-5; conditions: for inhibition at 2 µM: Homo sapiens, SK-MEL-5, 72 h, read-out: % Inh @2 μM SK-Mel-5
# Description: (§1) Antitumor activity of the compounds and cisplatin as a positive control was assessed by using CellTiter-Glow® Luminescent Cell Viability assay (Promega #G7572) according to the manufacturer's instructions. The compounds were tested at 2 concentrations, 2 and 20 μM, in triplicate well conditions.
# (§2) Tumor cells were grown at 37° C. in a humidified atmosphere with 5% CO2 in RPMI 1640 or DMEM medium, supplemented with 10% (v/v) fetal calf serum and 50 μg/ml gentamicin for up to 20 passages, and were passaged once or twice weekly. Cells were harvested using TrypLE or PBS buffer containing 1 mM EDTA, and the percentage of viable cells is determined using a cell counter.
# (§3) Cells were harvested from exponential phase cultures, counted and plated in 96 well flat-bottom microtiter plates at a cell density depending on the cell line's growth rate (4,000-20,000 cells/well depending on the cell line's growth rate, up to 60,000 for hematological cancer cell lines) in RPMI 1640 or DMEM medium supplemented with 10% (v/v) fetal calf serum and 50 μg/ml gentamicin (140 μl/well). Cultures were incubated at 37° C. and 5% CO2 in a humidified atmosphere. After 24 h, 10 μl of test compounds or control medium are added and left on the cells for another 72 h.
# (§4) Compounds were serially diluted in DMSO, transferred in cell culture medium, and added to the assay plates. The DMSO concentration was kept constant at <0.2% v/v across the assay plate. Viability of cells was quantified by CellTiter-Glow® Luminescent Cell Viability assay (Promega). Luminescence was measured with the microplate luminometer (EnVision Multi Label Reader).
# [2] = system: K562 cells; assay: CellTiter-Glow cell viability, leukemia K562; conditions: Homo sapiens, 72 h, read-out: % Inh @2 μM K562
# Description: as §1, §2
# as §3, with “Cultures were incubated at 37° C. and 5% CO2 in a humidified atmosphere. After 24 h, 10 μl of test compounds or control medium are added and left on the cells for another 72 h.” left out
# (§5) Compounds were serially diluted in DMSO, transferred in cell culture medium, and added to the assay plates. […] Viability of cells was quantified by CellTiter-Glow® Luminescent Cell Viability assay (Promega). Luminescence was measured with the microplate luminometer (EnVision Multi Label Reader).
# [3] = system: A2058 cells; assay: CellTiter-Glow cell viability, melanoma A2058; conditions: for inhibition at 2 µM: Homo sapiens, A2058, 72 h, read-out: % Inh @2 μM A2058
# Description: as §1, §2, §3, §4
# [4] = system: A673 cells; assay: CellTiter-Glow cell viability, Ewings sarcoma A673; conditions: Homo sapiens, 72 h, read-out: % Inh @2 μM A673
# Description: as §1, §2, §3, §4
# [5] = system: SK-N-SH cells; assay: CellTiter-Glow cell viability, brain carcinoma SK-N-SH; conditions: Homo sapiens, 72 h, read-out: % Inh @2 μM SK-N-SH
# Description: as §1, §2, §3, §4
# [6] = system: H118MG cells; assay: CellTiter-Glow cell viability, brain carcinoma cells H118MG; conditions: 72 h, read-out: growth inhibition of brain carcinoma cells H118MG
# Description: as §1, §2
# as §3, with “Cultures were incubated at 37° C. and 5% CO2 in a humidified atmosphere. After 24 h, 10 μl of test compounds or control medium are added and left on the cells for another 72 h.” left out
# as §5
# [7] = system: Daudi cells; assay: CellTiter-Glow cell viability, lymphoma Daudi; conditions: Homo sapiens, 72 h, read-out: % Inh @2 μM Daudi
# Description: as §1, §2, §3, §4
# [8] = system: DMS114 cells; assay: CellTiter-Glow cell viability, lung carcinoma DMS114; conditions: Homo sapiens, DMS-114, 72 h, read-out: growth inhibition of lung carcinoma cells DMS114
# Description: as §1, §2
# as §3, with “Cultures were incubated at 37° C. and 5% CO2 in a humidified atmosphere. After 24 h, 10 μl of test compounds or control medium are added and left on the cells for another 72 h.” left out
# as §5
# [9] = system: NCI-H292 cells; assay: CellTiter-Glow cell viability, lung carcinoma NCI-H292; conditions: Homo sapiens, 72 h, read-out: % Inh @2 μM NCI-H292
# Description: as §1, §2, §3, §4
# [10] = system: A375 cells; assay: CellTiter-Glow cell viability, melanoma A375; conditions: for inhibition at 2 µM: Homo sapiens, A-375, 72 h, read-out: % Inh @2 μM A375
# Description: as §1, §2, §3, §4
# [11] = system: NAWALMA cells; assay: CellTiter-Glow cell viability, lymphoma NAWALMA; conditions: 72 h, read-out: % Inh @2 μM NAWALMA
# Description: as §1, §2, §3, §4
# [12] = system: MeWo cell line; assay: CellTiter-Glow cell viability, melanoma MeWo; conditions: Homo sapiens, 72 h, read-out: growth inhibition of MeWo cell line
# Description: as §1, §2
# as §3, with “Cultures were incubated at 37° C. and 5% CO2 in a humidified atmosphere. After 24 h, 10 μl of test compounds or control medium are added and left on the cells for another 72 h.” left out
# as §5
# [13] = system: HCT116 cells; assay: CellTiter-Glow cell viability, colon carcinoma HCT116; conditions: Homo sapiens, HCT-116, 72 h, read-out: % Inh @2 μM HCT116
# Description: as §1, §2
# as §3, with “Cultures were incubated at 37° C. and 5% CO2 in a humidified atmosphere. After 24 h, 10 μl of test compounds or control medium are added and left on the cells for another 72 h.” left out
# as §5
# [14] = system: U937 cell line; assay: CellTiter-Glow cell viability, leukemia U937; conditions: Homo sapiens, U-937, 72 h, read-out: growth inhibition of U937 cell line
# Description: as §1, §2
# as §3, with “Cultures were incubated at 37° C. and 5% CO2 in a humidified atmosphere. After 24 h, 10 μl of test compounds or control medium are added and left on the cells for another 72 h.” left out
# as §5
# [15] = system: SH-SY-5Y cells; assay: CellTiter-Glow cell viability, brain carcinoma SH-SY-5Y; conditions: Homo sapiens, SH-SY5Y, 72 h, read-out: % Inh @2 μM SH-SY-5Y
# Description: as §1, §2
# as §3, with “Cultures were incubated at 37° C. and 5% CO2 in a humidified atmosphere. After 24 h, 10 μl of test compounds or control medium are added and left on the cells for another 72 h.” left out
# as §5
Compound,inhibition at 2 µM [1] [%],inhibition at 2 µM [3] [%],inhibition at 2 µM [4] [%],inhibition at 2 µM [5] [%],inhibition at 2 µM [7] [%],inhibition at 2 µM [9] [%],inhibition at 2 µM [10] [%],inhibition at 2 µM [11] [%],also measured
COc1c(O)ccc2c(=O)c(O)c(-c3ccc(N(C)CCCCN(C)CCC4CCN(Cc5ccccc5)CC4)cc3)oc12 [SND437],99.7,97.3,99.6,96.4,59.4,71.6,69.5,80.8,inhibition at 2 µM [2]: 65.3%; inhibition at 2 µM [6]: 97.6%; inhibition at 2 µM [8]: 98%; inhibition at 2 µM [12]: 93.2%; inhibition at 2 µM [13]: 83.7%
COc1c(O)ccc2c(=O)c(O)c(-c3ccc(N(C)CCCCNCCCN)cc3)oc12 [SND446],56.5,–,–,–,82,–,–,75.5,inhibition at 2 µM [14]: 58%; inhibition at 2 µM [15]: 55.8%
COc1c(O)ccc2c(=O)c(O)c(-c3ccc(N(C)CCCCN(C)CCN4CCN(Cc5ccccc5)CC4)cc3)oc12 [SND438],61.1,72.1,55.6,53.5,50,51.9,55.5,65.3,% Inh @2 μM SK-Mel-5 ([1]; 72 h): 50.7%; % Inh @2 μM A2058 ([3]; 72 h): 78.2%; % Inh @2 μM A375 ([10]; 72 h): 60.8%
COc1c(-c2ccc(N(C)CCCCN(C)CCCN3CCCCC3)cc2)oc2c(OC)c(O)ccc2c1=O [SND459],–,–,63.5,–,–,–,–,–,–
COc1c(O)ccc2c(=O)c(O)c(-c3ccc(N(C)CCCCN(C)CCCN4CCCCC4)cc3)oc12 [SND439],–,–,80.8,57.5,57.4,62.6,–,73.4,–
COc1c(O)ccc2c(=O)c(O)c(-c3ccc(N(C)CCCCNCCCNCCCCN)cc3)oc12 [SND445],–,–,61.8,–,–,–,–,–,–

# Source: patent US20240051930A1, “HETEROAROMATIC SPERMIDINE ANALOGUES AND THEIR ANTICANCER ACTIVITY” (FLORATEK PHARMA S.A., priority 2021, published 2024)
